Assays:
[1] = molecular target: T1, UGT1A4 (Homo sapiens, UniProt P22310); assay: Inhibition of recombinant UGT1A4 activity (TFP glucuronidation); assay type: biochemical; conditions: recombinant UGT1A4
T1 construct: purchased BD Gentest Corp. (Woburn, MA, USA); host or cells: baculovirus-infected insect cells
T1 sequence (P22310 29-534): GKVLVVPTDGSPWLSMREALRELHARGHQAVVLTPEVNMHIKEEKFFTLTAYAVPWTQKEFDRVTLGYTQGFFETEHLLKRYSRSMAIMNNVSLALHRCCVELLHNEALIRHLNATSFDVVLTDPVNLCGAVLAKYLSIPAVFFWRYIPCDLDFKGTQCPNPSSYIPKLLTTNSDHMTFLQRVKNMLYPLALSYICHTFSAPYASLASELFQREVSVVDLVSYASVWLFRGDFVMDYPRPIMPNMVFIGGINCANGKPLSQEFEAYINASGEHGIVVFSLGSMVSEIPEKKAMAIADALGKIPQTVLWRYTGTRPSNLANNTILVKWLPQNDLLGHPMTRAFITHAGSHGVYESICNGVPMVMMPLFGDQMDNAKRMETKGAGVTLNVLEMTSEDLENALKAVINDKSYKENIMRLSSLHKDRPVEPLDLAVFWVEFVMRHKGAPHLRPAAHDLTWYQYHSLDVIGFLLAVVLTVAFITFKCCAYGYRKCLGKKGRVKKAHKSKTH
Method: TFP was used as the substrate for UGT1A4. Trifluoperazine glucuronide (TFPG) formation was measured using a modification of the method reported. […] Reactions were initiated by the addition of UDPGA and incubations were performed at 37°C in a shaking water bath for 20 min. Incubations were terminated by the addition of 4% acetic acid/96% methanol (0.2 mL) and then centrifuged at 20,500 ×g for 15 min. A 40 μL aliquot of the supernatant fraction was injected into the HPLC column. […] A gradient mobile phase consisting initially of 30 : 70, mobile phase A (acetonitrile) verse mobile phase B (0.5% formic acid/water) was brought to a composition of 90 : 10 in 10 min which was held for 7 min, all at a flow rate of 1 mL/min. Column eluant was monitored by UV absorbance 256 nm. […] The negative controls are the incubation without UDPGA.

[2] = molecular target: T2, UGT1A7 (Homo sapiens, UniProt Q9HAW7); assay: Inhibition of recombinant UGT1A7 activity (4-MU glucuronidation); conditions: recombinant UGT1A7
T2 sequence (Q9HAW7 26-530): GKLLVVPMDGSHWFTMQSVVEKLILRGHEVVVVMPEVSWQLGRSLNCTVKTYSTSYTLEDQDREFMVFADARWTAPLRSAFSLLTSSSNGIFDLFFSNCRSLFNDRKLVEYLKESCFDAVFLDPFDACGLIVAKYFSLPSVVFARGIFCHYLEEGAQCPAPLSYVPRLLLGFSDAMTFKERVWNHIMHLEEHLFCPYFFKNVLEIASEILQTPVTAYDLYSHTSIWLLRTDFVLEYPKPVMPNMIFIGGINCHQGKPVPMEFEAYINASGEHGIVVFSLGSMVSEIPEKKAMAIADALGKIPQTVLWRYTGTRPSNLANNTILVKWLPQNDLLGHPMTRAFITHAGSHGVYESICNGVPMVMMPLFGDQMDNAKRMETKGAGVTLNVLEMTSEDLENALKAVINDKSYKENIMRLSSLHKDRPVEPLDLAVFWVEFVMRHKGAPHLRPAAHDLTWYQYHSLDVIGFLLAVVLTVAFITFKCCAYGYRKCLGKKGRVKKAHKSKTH
Method: (§1) A panel of recombinant human UGT supersomes (UGT1A1, UGT1A3, UGT1A4, UGT1A6, UGT1A7, UGT1A8, UGT1A9, UGT1A10, UGT2B4, UGT2B7, UGT2B15, and UGT2B17) expressed in baculovirus-infected insect cells were purchased from BD Gentest Corp. (Woburn, MA, USA).
(§2) 4-MU, a nonselective substrate of UGTs, was used as probe substrate for all UGTs except UGT1A4. Incubations with each individual enzyme were conducted using conditions previously described. There was a 5 min preincubation step at 37°C before the reaction was started by addition of UDPGA. The incubation mixtures were then centrifuged at 20,500 ×g for 15 min to obtain the supernatant. Aliquots (20 μL) were then analyzed by HPLC. The HPLC system (SHIMADZU, Kyoto, Japan) consisted of an SCL-10A system controller, two LC-10AT pumps, a SIL-10A auto injector, and a SPD-10AVP UV detector. Chromatographic separation was achieved using a Kromasil ODS column (4.6 × 150 mm I.D., 5 μm particle size) at a flow rate of 1 mL/min and UV detection at 316 nm. The mobile phase consisted of 10 mM KH2PO4, pH 2.7 (A) and acetonitrile (B). The following gradient was applied at a flow rate of 1 mL/min: 0–4 min 80% A and 20% B, 4.1–8 min 50% A and 50% B, 8.1–12 min, 30% A and 70% B. All experiments were performed in two independent experiments in duplicate.
(§3) A typical incubation mixture contained recombinant human UGTs, 5 mM MgCl2, 5 mM UDPGA, 50 μg/mg protein alamethicin, 50 mM Tris-HCl buffer (pH 7.4), and various probe substrates of UGTs in the absence or presence of different concentrations of inhibitors. […] The final concentration of DMSO in the incubation system was 1% (v/v). […] Known UGT inhibitors were used as positive controls: diclofenac for UGT1A1, UGT1A6, UGT1A7, and UGT1A9; androsterone for UGT1A3, UGT2B7, and UGT2B15, phenylbutazone for UGT1A8 and UGT1A10, and hecogenin for UGT1A4, respectively. There is no positive control reported available for UGT2B4 and UGT2B17. The negative controls are the incubation without UDPGA. […] The final concentration of DMSO in the incubation system was 1% (v/v). […] There was a 5 min preincubation step at 37°C before the reaction was started by the addition of UDPGA. Incubation times were 120 min for UGT1A1, UGT1A10, UGT2B4, UGT2B15, and UGT2B17, 75 min for UGT1A3, and 30 min for UGT1A4, UGT1A6, UGT1A7, UGT1A8, and UGT1A9. The reactions were quenched by adding 100 μL acetonitrile and internal standard. The incubation mixtures were then centrifuged at 20,500 ×g for 15 min to obtain the supernatant. An aliquot of the supernatant was used for HPLC analysis as described above. All experiments were performed in two independent experiments in duplicate.
Inhibition data from experiments were graphically represented by Dixon plots. K i values were calculated by nonlinear regression using the equations for competitive inhibition (1), noncompetitive inhibition (2), or mixed inhibition (3), [22] (1) v =VmaxS/Km(1+(I/Ki))+S, (2) v =VmaxS/(Km+S)(1+(I/Ki)), (3) v =VmaxS/Km (1+(I/Ki))+S(1+(I/αKi)), where v is the velocity of the reaction; S and I are the substrate and inhibitor concentrations, respectively; K i is the inhibition constant describing the affinity of the inhibitor for the enzyme; K m is the substrate concentration at half of the maximum velocity (V max) of the reaction; α reflects the effect of inhibitor on the affinity of the enzyme for its substrate. The type of inhibition was determined from the enzyme inhibition models. Goodness of fit to kinetic and inhibition models was assessed from the F statistic, r ^2 values, parameter standard error estimates, and 95% confidence intervals. Kinetic constants are reported as the mean value ± standard error of the parameter estimate.

[3] = molecular target: T3, UGT2B7 (Homo sapiens, UniProt P16662); assay: Inhibition of recombinant UGT2B7 activity (4-MU glucuronidation)
T3 sequence (P16662 24-529): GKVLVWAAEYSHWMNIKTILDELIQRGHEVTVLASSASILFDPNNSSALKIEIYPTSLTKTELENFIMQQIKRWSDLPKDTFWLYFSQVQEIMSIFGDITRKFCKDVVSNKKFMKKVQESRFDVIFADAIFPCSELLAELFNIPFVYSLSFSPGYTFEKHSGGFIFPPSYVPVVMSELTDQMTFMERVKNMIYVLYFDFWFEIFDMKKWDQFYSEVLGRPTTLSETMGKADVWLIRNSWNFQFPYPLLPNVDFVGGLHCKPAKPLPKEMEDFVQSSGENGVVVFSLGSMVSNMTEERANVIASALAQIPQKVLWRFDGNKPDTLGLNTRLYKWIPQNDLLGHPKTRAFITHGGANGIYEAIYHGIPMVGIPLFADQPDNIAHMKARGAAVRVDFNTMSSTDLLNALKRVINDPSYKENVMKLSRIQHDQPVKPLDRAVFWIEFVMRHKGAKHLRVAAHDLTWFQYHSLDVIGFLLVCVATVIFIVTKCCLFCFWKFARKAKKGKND
Method: as §1, §2, §3
Inhibition data from experiments were graphically represented by Dixon plots. K i values were calculated by nonlinear regression using the equations for competitive inhibition (1), noncompetitive inhibition (2), or mixed inhibition (3), [22] […] The type of inhibition was determined from the enzyme inhibition models. Goodness of fit to kinetic and inhibition models was assessed from the F statistic, r ^2 values, parameter standard error estimates, and 95% confidence intervals. […]

Icariside II
Inhibition type against UGT1A4 [1]: competitive | Inhibition type against UGT1A7 [2]: noncompetitive | Inhibition type against UGT2B7 ([3]; recombinant UGT2B7): mixed | α of mixed inhibition against UGT2B7 ([3]; recombinant UGT2B7, mixed inhibition model): 3.3
